Strand notation (5' to 3'): a small letter for the sugar, then the base; units joined by * are phosphorothioate-linked, units joined directly phosphodiester-linked; [ ] holds rarer units or linkages, { } end groups; capitals alone tell only the bases. d = 2'-deoxy (DNA)

The first series concerns the target T1, human type II phospholipase A2 (Homo sapiens, UniProt P14555).
T1 sequence (P14555 21-144): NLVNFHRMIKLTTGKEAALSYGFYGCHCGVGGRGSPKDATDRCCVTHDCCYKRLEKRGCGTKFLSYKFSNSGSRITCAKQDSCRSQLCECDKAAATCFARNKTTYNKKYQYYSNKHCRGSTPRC
In words: Human type II phospholipase A2 enzyme assay (3H-oleic acid labelled E. coli substrate). It counts as biochemical.
Conditions: not given
For the substance “ISIS 3628: GGAGCCCTfCTATACCCACCC, phosphorothioate, SEQ ID NO 78”, the “I.C.50 relative to ISIS 3196 (fold higher)” value is “approximately 10 fold”.

The same series, now with this note: 1 μM.
On to “ISIS 3470: GTAGGGAGGGAGGGTATGAGA, phosphorothioate, SEQ ID NO 66 (dG*dT*dA*dG*dG*dG*dA*dG*dG*dG*dA*dG*dG*dG*dT*dA*dT*dG*dA*dG*dA)”, for which the “inhibition of human type II phospholipase A2” value is given as “completely inhibited”.

Still in this series, the particulars now being: 1 μM; Table 4.
In the case of “ISIS 3471: AAGGAACTTGGTTAGGGTAGG, phosphorothioate, SEQ ID NO 67 (dA*dA*dG*dG*dA*dA*dC*dT*dT*dG*dG*dT*dT*dA*dG*dG*dG*dT*dA*dG*dG)”, the “% Inhibition (1 μM)” value was found to be 34.5%.
Consider “ISIS 3671: TAGGAGGGTCTTCATGGTAAG, phosphorothioate, SEQ ID NO 88 (dT*dA*dG*dG*dA*dG*dG*dG*dT*dC*dT*dT*dC*dA*dT*dG*dG*dT*dA*dA*dG)”, for which the “% Inhibition (1 μM)” value was determined as 49.3%.
Same read-out and setting: under “ISIS 3474: ATAGAAGGGCTCCTGCCTGGC, phosphorothioate, SEQ ID NO 70 (dA*dT*dA*dG*dA*dA*dG*dG*dG*dC*dT*dC*dC*dT*dG*dC*dC*dT*dG*dG*dC)” stands 13.3%; under “ISIS 3184: TTCATGGTAAGAGTTCTTGGG, phosphorothioate, SEQ ID NO 60 (dT*dT*dC*dA*dT*dG*dG*dT*dA*dA*dG*dA*dG*dT*dT*dC*dT*dT*dG*dG*dG)”, 25.1%; under “ISIS 3475: TCTCATTCTGGGTGGGTATAG, phosphorothioate, SEQ ID NO 71 (dT*dC*dT*dC*dA*dT*dT*dC*dT*dG*dG*dG*dT*dG*dG*dG*dT*dA*dT*dA*dG)”, 67.0%.
As for “ISIS 3688: TGGCCTCACCGATCCGTTGCA, phosphorothioate, SEQ ID NO 91 (dT*dG*dG*dC*dC*dT*dC*dA*dC*dC*dG*dA*dT*dC*dC*dG*dT*dT*dG*dC*dA)”, the “% Inhibition (1 μM)” value stood at 43.1%.
The same measure, in the same setting: under “ISIS 3481: TTTTTGATTTGCTAATTGCTT, phosphorothioate, SEQ ID NO 77 (dT*dT*dT*dT*dT*dG*dA*dT*dT*dT*dG*dC*dT*dA*dA*dT*dT*dG*dC*dT*dT)” stands 2.2%; under “ISIS 3629: CACCCCTCGTTGCTGAGTCCC, phosphorothioate, SEQ ID NO 79 (dC*dA*dC*dC*dC*dC*dT*dC*dG*dT*dT*dG*dC*dT*dG*dA*dG*dT*dC*dC*dC)”, 20.5%; under “ISIS 3193: CCTGCAGTAGGCCTGGAAGGA, phosphorothioate, SEQ ID NO 64 (dC*dC*dT*dG*dC*dA*dG*dT*dA*dG*dG*dC*dC*dT*dG*dG*dA*dA*dG*dG*dA)”, 22.6%.
Still for that read-out and setting: under “ISIS 3181: TCTGCCCCGGCCGTCGCTCCC, phosphorothioate, SEQ ID NO 58 (dT*dC*dT*dG*dC*dC*dC*dC*dG*dG*dC*dC*dG*dT*dC*dG*dC*dT*dC*dC*dC)” stands 42.7%.
The same measure, in the same setting: under “ISIS 4133: AGTGCACGTTGAGTATGTGAG, phosphorothioate, SEQ ID NO 95 (dA*dG*dT*dG*dC*dA*dC*dG*dT*dT*dG*dA*dG*dT*dA*dT*dG*dT*dG*dA*dG)” stands 37.3%.
With “ISIS 3470: GTAGGGAGGGAGGGTATGAGA, phosphorothioate, SEQ ID NO 66 (dG*dT*dA*dG*dG*dG*dA*dG*dG*dG*dA*dG*dG*dG*dT*dA*dT*dG*dA*dG*dA)”, the “% Inhibition (1 μM)” value is 88.9%.
As for “ISIS 3478: TGGTTAAGCACGGAGTTGAGG, phosphorothioate, SEQ ID NO 74 (dT*dG*dG*dT*dT*dA*dA*dG*dC*dA*dC*dG*dG*dA*dG*dT*dT*dG*dA*dG*dG)”, the “% Inhibition (1 μM)” value is reported as 26.4%.
Same read-out and setting: under “ISIS 3679: AGTAGGCCTGGAAGGAAATTT, phosphorothioate, SEQ ID NO 90 (dA*dG*dT*dA*dG*dG*dC*dC*dT*dG*dG*dA*dA*dG*dG*dA*dA*dA*dT*dT*dT)” stands 30.3%; under “ISIS 3480: TTGCTTTATTCAGAAGAGACC, phosphorothioate, SEQ ID NO 76 (dT*dT*dG*dC*dT*dT*dT*dA*dT*dT*dC*dA*dG*dA*dA*dG*dA*dG*dA*dC*dC)”, 24.5%.
Consider “ISIS 3185: CAAAGATCATGATCACTGCCA, phosphorothioate, SEQ ID NO 61 (dC*dA*dA*dA*dG*dA*dT*dC*dA*dT*dG*dA*dT*dC*dA*dC*dT*dG*dC*dC*dA)”, for which the “% Inhibition (1 μM)” value is 22.7%.
On the same count and under the same terms, under “ISIS 3712: AGGAGTCCTGTTTTGAAATCA, phosphorothioate, SEQ ID NO 94 (dA*dG*dG*dA*dG*dT*dC*dC*dT*dG*dT*dT*dT*dT*dG*dA*dA*dA*dT*dC*dA)” stands 31.8%; under “ISIS 3477: GTGGAGGAGAGCAGTAGAAGG, phosphorothioate, SEQ ID NO 73 (dG*dT*dG*dG*dA*dG*dG*dA*dG*dA*dG*dC*dA*dG*dT*dA*dG*dA*dA*dG*dG)”, 54.7%; under “ISIS 3468: GGGACTCAGCAACGAGGGGTG, phosphorothioate, SEQ ID NO 65 (dG*dG*dG*dA*dC*dT*dC*dA*dG*dC*dA*dA*dC*dG*dA*dG*dG*dG*dG*dT*dG)”, 97.5%.
Still for that read-out and setting: under “ISIS 3476: GCTGGAAATCTGCTGGATGTC, phosphorothioate, SEQ ID NO 72 (dG*dC*dT*dG*dG*dA*dA*dA*dT*dC*dT*dG*dC*dT*dG*dG*dA*dT*dG*dT*dC)” stands 43.4%.
Still for that read-out and setting: under “ISIS 4149: CTACGGCAGAGACGAGATAGC, phosphorothioate, SEQ ID NO 96 (dC*dT*dA*dC*dG*dG*dC*dA*dG*dA*dG*dA*dC*dG*dA*dG*dA*dT*dA*dG*dC)” stands 20.2%.
“ISIS 3697: ACTCTTACCACAGGTGATTCT, phosphorothioate, SEQ ID NO 93 (dA*dC*dT*dC*dT*dT*dA*dC*dC*dA*dC*dA*dG*dG*dT*dG*dA*dT*dT*dC*dT)”: the “% Inhibition (1 μM)” value came to 39%.
Turning to “ISIS 3473: CTGCCTGGCCTCTAGGATGGG, phosphorothioate, SEQ ID NO 69 (dC*dT*dG*dC*dC*dT*dG*dG*dC*dC*dT*dC*dT*dA*dG*dG*dA*dT*dG*dG*dG)”, the “% Inhibition (1 μM)” value was determined as 25.9%.
The same measure, in the same setting: under “ISIS 3665: GGACTGGCCTAGCTCCTCTGC, phosphorothioate, SEQ ID NO 86 (dG*dG*dA*dC*dT*dG*dG*dC*dC*dT*dA*dG*dC*dT*dC*dC*dT*dC*dT*dG*dC)” stands 45.8%.
Same read-out and setting: under “ISIS 3628: GGAGCCCTfCTATACCCACCC, phosphorothioate, SEQ ID NO 78” stands 13.6%; under “ISIS 3479: CCGGAGTACAGGTTCTTTGGT, phosphorothioate, SEQ ID NO 75”, 42.3%; under “ISIS 3694: ACAGCAGCTGTGAGGAGACAC, phosphorothioate, SEQ ID NO 92 (dA*dC*dA*dG*dC*dA*dG*dC*dT*dG*dT*dG*dA*dG*dG*dA*dG*dA*dC*dA*dC)”, 28.2%.
Still for that read-out and setting: under “ISIS 3669: GGTGACAAATGCAGATGGACT, phosphorothioate, SEQ ID NO 87 (dG*dG*dT*dG*dA*dC*dA*dA*dA*dT*dG*dC*dA*dG*dA*dT*dG*dG*dA*dC*dT)” stands 34.7%; under “ISIS 3663: GTCTGCTGGGTGGTCTGAACT, phosphorothioate, SEQ ID NO 85”, 16.3%.
For the substance “ISIS 3676: AGCTCTTACCAAAGATCATGA, phosphorothioate, SEQ ID NO 89 (dA*dG*dC*dT*dC*dT*dT*dA*dC*dC*dA*dA*dA*dG*dA*dT*dC*dA*dT*dG*dA)”, the “% Inhibition (1 μM)” value was found to be 24.5%.
On the same count and under the same terms, under “ISIS 3182: CAGAGGACTCCAGAGTTGTAT, phosphorothioate, SEQ ID NO 59 (dC*dA*dG*dA*dG*dG*dA*dC*dT*dC*dC*dA*dG*dA*dG*dT*dT*dG*dT*dA*dT)” stands 30.2%.

The series is the same for the next values; noted with them: 1 μM; Table 5, two separate experiments.
For the substance “ISIS 4957: GGG TGG ATA TAG, SEQ ID NO 106 (dG*dG*dG*dT*dG*dG*dA*dT*dA*dT*dA*dG; aptamer)”, the “% Inhibition (1 μM)” value came out at 81.9%.
Still for that read-out and setting: under “ISIS 4956: GGG CGG GTA TAG, SEQ ID NO 105 (dG*dG*dG*dC*dG*dG*dG*dT*dA*dT*dA*dG; aptamer)” stands 92.0%; under “ISIS 4962: GGG TGG GTA T, SEQ ID NO 108 (dG*dG*dG*dT*dG*dG*dG*dT*dA*dT)”, 36.3%.
Same read-out and setting: under “GGG TGG GTA TAG AAG GGC: truncated version of ISIS 3196, SEQ ID NO 97 (dG*dG*dG*dT*dG*dG*dG*dT*dA*dT*dA*dG*dA*dA*dG*dG*dG*dC)” stands 85.3%; under “ISIS 4947: AGG TGG GTA TAG, SEQ ID NO 103 (dA*dG*dG*dT*dG*dG*dG*dT*dA*dT*dA*dG; aptamer)”, 22.7%.
On the same count and under the same terms, under “GTA TAG AAG GGC TCC: truncated version of ISIS 3196, SEQ ID NO 100 (dG*dT*dA*dT*dA*dG*dA*dA*dG*dG*dG*dC*dT*dC*dC)” stands 9.2%.
For “TAG AAG GGC TCC: truncated version of ISIS 3196, SEQ ID NO 101 (dT*dA*dG*dA*dA*dG*dG*dG*dC*dT*dC*dC)”, the “% Inhibition (1 μM)” value is recorded as 0%.
On the same count and under the same terms, under “ISIS 4955: GGG AGG GTA TAG, SEQ ID NO 104 (dG*dG*dG*dA*dG*dG*dG*dT*dA*dT*dA*dG; aptamer)” stands 97.5%; under “TGG GTA TAG AAG GGC TCC: truncated version of ISIS 3196, SEQ ID NO 99 (dT*dG*dG*dG*dT*dA*dT*dA*dG*dA*dA*dG*dG*dG*dC*dT*dC*dC)”, 84.6%.
Same read-out and setting: under “TGG GTA TAG AAG GGC: truncated version of ISIS 3196, SEQ ID NO 102 (dT*dG*dG*dG*dT*dA*dT*dA*dG*dA*dA*dG*dG*dG*dC)” stands 33.5%; under “ISIS 4946: GGG TGG GAA TAG, SEQ ID NO 107 (dG*dG*dG*dT*dG*dG*dG*dA*dA*dT*dA*dG; aptamer)”, 73.2%.

The same series, now with this note: concentrations as high as 10 μM.
In the case of “ISIS 1573: phosphorothioate deoxyoligonucleotide, SEQ ID NO: 120 (dG*dA*dG*dG*dC*dT*dG*dA*dG*dG*dT*dG*dG*dG*dA*dG*dG*dA)”, the “inhibition of phospholipase A2” value is “did not significantly inhibit”.

Still in this series, the particulars now being: increasing E. coli substrate; ISIS 3481 at 0.2 μM and 2 μM.
Turning to “ISIS 3481: TTTTTGATTTGCTAATTGCTT, phosphorothioate, SEQ ID NO 77 (dT*dT*dT*dT*dT*dG*dA*dT*dT*dT*dG*dC*dT*dA*dA*dT*dT*dG*dC*dT*dT)”, the “effect on substrate kinetics” value is reported as “did not modify the substrate kinetics”.

Values taken from patent US20070015723A1, “Antiviral oligonucleotides having a conserved G4 core sequence” (priority 1992, published 2007).
